Experimental data published in US20150374623A1, “DEAMORPHIZATION OF SPRAY-DRIED FORMULATIONS VIA SPRAY-BLENDING” (NOVARTIS AG, priority 2013, published 2015).
≈ marks a conversion by molar mass, not a printed value. Where a name gives a salt, the structure may show the parent alone. Read-outs that look alike come from different tables or passages of the source.

Columns and labels:
β2-adrenoceptor = β2-adrenoceptor (Homo sapiens, UniProt P07550); conditions: cited from earlier work
[1] = Solubility of indacaterol maleate in water and in maleate buffer; assay type: physicochemical
Description: In Lot II, the concentration of indacaterol in Feedline A was 18% w/w and the concentration in the spray-blended bulk powder was just 4.1% w/w, as the remaining spray dried particles from Feedlines B and C contained no API.
Lot IV is formulated like Lot II except 20 mM sodium maleate (pH 5.5) was added to Feedline A. Sodium maleate was added to decrease the indacaterol solubility in water to about, 0.01 mg/ml (common ion effect). In this case, spray-blending reduced the dissolved indacaterol in the feedstock from about, 8.0% to 0.1%.
Estimated % Dissolved was calculated based on the feedstock compositions according to equation 1. The solubility of indacaterol in water is 0.2 mg/ml, and 0.01 mg/ml in 20 mM maleate buffer. The decreased solubility in maleate buffer is the result of the shift in the equilibrium towards precipitation of indacaterol maleate which occurs as a result of the addition of a common ion. The impact of spray-blending on the dissolved fraction is clearly evident by comparing Lots I and VI. In the spray-blended Lot I, the total drug loading is 1.4%, yet the dissolved fraction is just 4.9%. In contrast, for the single feedstock Lot VI, the drug content is actually higher (2%), yet the dissolved fraction is nearly 15%.

Sequence of β2-adrenoceptor (P07550 whole entry, species assumed): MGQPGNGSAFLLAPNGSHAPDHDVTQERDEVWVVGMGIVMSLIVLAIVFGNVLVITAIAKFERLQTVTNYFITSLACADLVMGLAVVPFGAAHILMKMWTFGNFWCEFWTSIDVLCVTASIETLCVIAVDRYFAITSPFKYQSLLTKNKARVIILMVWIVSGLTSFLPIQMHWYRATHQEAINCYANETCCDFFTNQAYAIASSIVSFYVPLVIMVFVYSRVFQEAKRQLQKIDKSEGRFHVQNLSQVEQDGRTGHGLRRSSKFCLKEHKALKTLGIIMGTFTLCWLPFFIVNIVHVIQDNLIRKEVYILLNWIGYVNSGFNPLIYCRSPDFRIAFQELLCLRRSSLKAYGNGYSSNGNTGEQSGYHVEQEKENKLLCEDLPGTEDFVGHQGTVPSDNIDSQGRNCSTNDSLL

SMILES | duration of action (β2-adrenoceptor) | onset of action (β2-adrenoceptor) | solubility in 20 mM maleate buffer ([1]; 20 mM sodium maleate (pH 5.5), common ion effect) [µg/mL] | solubility ([1]; 20 mM sodium maleate buffer, pH 5.5, aqueous buffer, 20 mM sodium maleate (pH 5.5), common ion effect, read-out: solubility in 20 mM maleate buffer) [µg/mL] | solubility ([1]; water, read-out: solubility in water) [µg/mL]
CCc1cc2c(cc1CC)CC(NC[C@H](O)c1ccc(O)c3[nH]c(=O)ccc13)C2 [indacaterol, (R)-5-[2-(5,6-diethyl-indan-2-ylamino)-1-hydroxyethyl]-8-hydroxy-1H-quinolin-2-one] | over 24 hours | about 10 minutes | 10 (≈ 25.5 µM) | ~10 (≈ 25.5 µM) | 
CCc1cc2c(cc1CC)CC(NC[C@H](O)c1ccc(O)c3[nH]c(=O)ccc13)C2 [indacaterol maleate, (R)-5-[2-(5,6-diethyl-indan-2-ylamino)-1-hydroxyethyl]-8-hydroxy-1H-quinolin-2-one] |  |  |  |  | 200
